Where a name gives a salt, the structure may show the parent alone.
Assays:
neurodegeneration = details: in vivo; cited from earlier work
[1] = tested on: polyglutamine protein aggregation; details: cited from earlier work
97Q-ADE2 [2] = test: filter trap assay on cellulose acetate membrane for 97Q-ADE2 aggregates; assay type: cell-based, yeast
Description: Therefore, this unique physical characteristic of the aggregates could be detected biochemically using a filter trap assay in which only proteins with size more than 0.2 micrometers retain on a cellulose acetate membrane (Scherzinger et al., 1997, Cell 90, 549-558). In order to validate the colony-color phenotypes observed in the genetic experiments were caused by the formation of ADE2 protein aggregates, cell lysates were prepared and subjected to filter trap assays.
The experimental procedures for slot-blot assay were following: Nitrocellulose (NC) membrane was pre-wetted with TBS (20 mM Tris, 500 mM NaCl), then assembled into Bio-Dot apparatus (BIO-RAD) in which 3 filter papers (BIO-RAD) were on the bottom as a support and NC membrane was on the top. After assembly of the Bio-Dot apparatus, 200 μl TBS buffer was added into each loading well to rinse the membrane followed by the addition of diluted cell lysate (3 μl prepared cell lysate mixed with 197 μl TBS buffer). When the lysate has completely drained from the apparatus by gravity, 200 μl TBS buffer was loaded again to reduce residual proteins within the loading well. Following the step of TBS wash, 200 μl TTBS (20 mM Tris, 500 mM NaCl, and 0.05% Tween 20) was applied as washing buffer and the solution was sucked out by vacuum pump. The membrane was subjected to TTBS wash twice followed by removal of the membrane from the Bio-Dot apparatus and detection of trapped proteins by Western blotting. […] The signal for the immuno-blotting was detected by enhanced chemiluminescence (ECL) reagents. […]
In order to confirm the change of phenotype observed was caused by the alteration of protein solubility, the combination of filter trap and slot blot assays was applied for detecting the level of polyglutamine protein aggregates within these cells. […] Thus, the reduction of polyglutamine protein aggregation caused by Hsp104p inhibitor was tightly associated with the change of cellular phenotype and could be visibly detected by the colony color system.

Hsp104p = molecular target: T1, Hsp104p (Saccharomyces cerevisiae, UniProt P31539); details: 3-5 mM; cited from earlier work
T1 construct: cellular Hsp104p is required for two similar types of protein aggregation in yeast cells; host or cells: yeast cells (endogenous Hsp104p)

97Q-ADE2 [3] = test: colony-color assay of yeast cells expressing 97Q-ADE2 on adenine low medium; assay type: cell-based
[4] = tested on: cells that did not express 97Q-ADE2; test: colony-color control on glucose media, cells that did not express 97Q-ADE2, 48-well microplate; assay type: cell-based, yeast; details: 0, 1, 3 and 5 mM, FIG. 4 first row
Description: Plate preparation for colony-color assay was as following: 6.7 g of yeast nitrogen base lacking amino acids, 20 g of Bacto agar and 1.3 g of drop-out mix that contain amino acids supplement necessary for viable and selective growth of the transformed cells were added to 900 ml of H2O according to Burke et al. (Burke et al., Methods in Yeast Genetics, 2000 Edition, Gold Spring Harbor Laboratory Press, 171-175). Carbon source, either glucose or galactose, and filter-sterilized adenine were added after autoclaving to final concentrations of 2% and 4 mg/l, respectively. For preparation of media containing guanidine hydrochloride, the chemical reagent was added simultaneously with carbon source and adenine to final concentrations of […] as indicated. There were about 20 ml of medium in each 10 cm petri dish and 0.2 ml of medium in each well of 48-well microplate.
For the purpose of drug screening, small volume of medium for examining the colony color phenotype of cells has advantage in saving the amount of candidate compound tested. […] With glucose or galactose as carbon source, the transformed cells were grown on adenine low media containing guanidine hydrochloride at a final concentration of 0, 1, 3 and 5 mM as indicated. […]

25Q-ADE2 = test: colony-color assay of yeast cells expressing 25Q-ADE2 on adenine low medium; assay type: cell-based; details: guanidine hydrochloride 0, 1, 3 and 5 mM; 10-cm Petri dish; FIG. 3(A)

T1 sequence (P31539 whole entry): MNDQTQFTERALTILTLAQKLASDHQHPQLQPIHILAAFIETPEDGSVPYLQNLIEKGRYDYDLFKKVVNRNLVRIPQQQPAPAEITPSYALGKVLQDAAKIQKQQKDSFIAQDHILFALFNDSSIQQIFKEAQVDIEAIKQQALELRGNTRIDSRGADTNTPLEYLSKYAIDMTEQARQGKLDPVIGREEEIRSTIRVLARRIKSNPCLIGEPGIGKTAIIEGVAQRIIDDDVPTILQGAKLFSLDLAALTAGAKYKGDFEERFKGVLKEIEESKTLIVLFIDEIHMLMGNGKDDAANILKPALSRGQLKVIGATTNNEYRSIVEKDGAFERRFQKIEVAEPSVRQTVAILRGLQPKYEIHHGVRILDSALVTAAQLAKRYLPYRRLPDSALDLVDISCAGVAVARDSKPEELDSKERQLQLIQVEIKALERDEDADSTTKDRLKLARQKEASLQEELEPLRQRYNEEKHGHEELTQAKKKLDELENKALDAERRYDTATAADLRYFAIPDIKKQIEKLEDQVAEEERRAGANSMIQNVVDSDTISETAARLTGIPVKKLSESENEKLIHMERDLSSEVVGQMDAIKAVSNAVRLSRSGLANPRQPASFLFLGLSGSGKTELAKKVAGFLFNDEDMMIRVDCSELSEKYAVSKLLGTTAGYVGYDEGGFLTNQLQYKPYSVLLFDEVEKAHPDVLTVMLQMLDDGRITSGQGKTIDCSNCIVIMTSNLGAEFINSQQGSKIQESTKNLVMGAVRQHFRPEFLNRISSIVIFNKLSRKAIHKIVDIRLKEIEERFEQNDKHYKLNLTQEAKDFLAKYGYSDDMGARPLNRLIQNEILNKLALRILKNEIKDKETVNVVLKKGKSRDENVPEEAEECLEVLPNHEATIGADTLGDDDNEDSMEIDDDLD

| Compound | neurodegeneration in an animal model (neurodegeneration) | polyglutamine protein aggregation [1] | 97Q-ADE2 fusion protein trapped on cellulose acetate membrane (97Q-ADE2 [2]; 1 mM, FIG. 3(B) lane 3) | 97Q-ADE2 fusion protein trapped on cellulose acetate membrane (97Q-ADE2 [2]; 3 mM, continuous treatment, FIG. 3(B) lane 4) | 97Q-ADE2 fusion protein trapped on cellulose acetate membrane (97Q-ADE2 [2]; 5 mM, continuous treatment, FIG. 3(B) lane 5) | activity of Hsp104p (Hsp104p) | cellular color of 97Q-ADE2 expressing cells (97Q-ADE2 [3]; 0, 1, 3 and 5 mM, 48-well microplate, galactose, FIG. 4 second row) | appearance of colony color, 97Q-ADE2 versus 25Q-ADE2 cells (97Q-ADE2 [3]; 5 mM, 10-cm Petri dish) | cellular color phenotype of cells expressing 97Q-ADE2 (97Q-ADE2 [3]; guanidine hydrochloride 0, 1, 3 and 5 mM, adenine low media, 10-cm Petri dish, FIG. 3(A)) | colony color of cells that did not express 97Q-ADE2 [4] | colony color of cells expressing 25Q-ADE2 (25Q-ADE2) |
| --- | --- | --- | --- | --- | --- | --- | --- | --- | --- | --- | --- |
| C[C@@H](N)[C@H]1CC[C@H](C(=O)Nc2ccncc2)CC1 [Y-27632] | reduced neurodegeneration | diminished polyglutamine protein aggregation |  |  |  |  |  |  |  |  |  |
| N=C(N)N [guanidine hydrochloride] |  |  | significant amount of the fusion protein was trapped | little | no signal | substantially reduces the activity of Hsp104p | changed their cellular colors from red to white | indistinguishable between cells expressing 25Q-ADE2 and 97Q-ADE2 | changed from red to pink and white as a function of guanidine hydrochloride concentration | the cellular phenotype remained the same | constantly showed colony color of white |

Source: patent US7375190B2, “Recombinant protein and method of screening for agents that modulate polypeptide aggregation” (priority 2006, dated 2008)
